Assay results as given in ChEMBL document CHEMBL4732022, “Generation of reactive oxygen species is the primary mode of action and cause of survivin suppression by sepantronium bromide (YM155)” (RSC Med Chem, 2021).
Active and inactive are the calls of the source. No cut-off for these calls is given here.

Experiments:
[1] = molecular target: Baculoviral IAP repeat-containing protein 5 (Homo sapiens) (UniProt O15392); assay: Inhibition of survivin in human BT-20 cells assessed as reduction in survivin mRNA expression measured after 72 hrs by qPCR analysis; assay type: cell-based
Sequence of Baculoviral IAP repeat-containing protein 5 (Homo sapiens) (O15392 whole entry): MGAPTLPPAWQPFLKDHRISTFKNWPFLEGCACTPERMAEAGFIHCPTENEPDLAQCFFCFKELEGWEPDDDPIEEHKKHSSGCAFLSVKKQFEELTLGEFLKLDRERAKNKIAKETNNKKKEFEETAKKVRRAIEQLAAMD

MDA-MB-231 [2] = assay: Induction of ROS generation in human MDA-MB-231 cells assessed as increase in ROS level at 20 uM incubated for 12 hrs by […] based assay; assay type: functional, cell-based
MDA-MB-231 [3] = assay: Downregulation of survivin protein expression in human MDA-MB-231 cells at 20 uM incubated for 72 hrs by Western blot analysis; assay type: functional, cell-based
[4] = molecular target: Baculoviral IAP repeat-containing protein 5 (Homo sapiens) (UniProt O15392); assay: Inhibition of survivin in human MDA-MB-231 cells assessed as reduction in survivin mRNA expression measured after 72 hrs by qPCR analysis; assay type: cell-based
[5] = molecular target: Baculoviral IAP repeat-containing protein 5 (Homo sapiens) (UniProt O15392); assay: Inhibition of survivin in human MDA-MB-453 cells assessed as reduction in survivin mRNA expression measured after 72 hrs by qPCR analysis; assay type: cell-based
MCF-10A = assay: Cytotoxicity against human MCF-10A cells at 200 uM; assay type: cell-based
MDA-MB-231 [6] = assay: Downregulation of survivin protein expression in human MDA-MB-231 cells at 1 mM incubated for 72 hrs by Western blot analysis; assay type: functional, cell-based
MDA-MB-231 [7] = assay: Induction of ROS generation in human MDA-MB-231 cells assessed as increase in ROS level at 1 mM incubated for 12 hrs by […] based assay; assay type: functional, cell-based

SMILES	inhibition [1]	Activity (MDA-MB-231 [2])	Activity (MDA-MB-231 [3])	inhibition [4]	inhibition [5]	Activity (MCF-10A)	Activity (MDA-MB-231 [6])	Activity (MDA-MB-231 [7])
CC1=CC(=O)c2ccccc2C1=O	Active	Active	Active	Active	Active	–	–	–
CCCCS(=N)(=O)CCC(N)C(=O)O (stereo unspecified) [BUTHIONINE SULFOXIMINE]	Active	–	–	Active	Active	Non-Toxic	Active	Active
